Assay results from article PMC10510102, “Efficient Ligand Discovery Using Sulfur(VI) Fluoride Reactive Fragments” (ACS Chemical Biology, 2023).
Values joined by “and” are separate entries in the source; they are usually repeats but may differ in a detail not shown here. Equal values may be shown once. “Also recorded” adds a separate entry of the source.

Columns and labels:
HEK293T cells = test: Chemoproteomic profiling, proteins enriched by alkyne probes; type: cell-based, human; conditions: 10 μM probe, 1 h; log2 ratio ≥0.58, p-value ≤0.05, #unique peptides ≥2
Description: (§1) HEK293T cells were treated for 1 h with probes 2j, 2k, or 2l (10 μM) or the DMSO vehicle. Competition-based experiments were also conducted where cells were pretreated with parent hits 2d (40 μM) or 2e (40 μM) for 1 h, before the addition of alkyne-containing probes 2j (10 μM) or 2k (10 μM), respectively. Following incubation, treated cells were lysed and conjugated with biotin-azide by Cu-click, and biotinylated proteins were enriched using NeutrAvidin beads. Enriched proteins were digested with LysC and trypsin, prior to analysis by LC–MS/MS (Figure 4b). […]
(§2) 6.2. Chemoproteomics workflow
(§3) Acetylation of NeutrAvidin agarose slurry:
(§4) NeutrAvidin agarose slurry (10 mL) (Thermo Fisher Scientific, 29204) was centrifuged (2 min, 2000 rpm) prior to removal of the supernatant. The beads were washed three times with PBS. PBS (9 mL) and Sulfo-NHS-acetate (482 μL, 400 mM in DMSO) (Thermo Fisher Scientific, 26777) were added, the beads were incubated at room temperature for 30 min on a falcon tube roller, and then centrifuged (2 min, 2000 rpm). Supernatant was removed and the incubation step with freshly made NHS-acetate was repeated. The reaction was quenched by adding Tris (2 mL, 1 M, pH 7.5). The beads were washed once with PBS and twice with 20% EtOH. 20% EtOH (5 mL) was added, and the beads were stored at 4 °C.
Chemoproteomics workflow:
HEK293T cell line (human origin, The Francis Crick Institute cell service) was used for this study. The cells were maintained at 37 °C with 5% CO2 in DMEM media supplemented with 10% fetal bovine serum and 1% L-Glutamine–Penicillin–Streptomycin solution (200 mM L-glutamine, 10,000 U/mL penicillin and 10 mg/mL streptomycin).
HEK293T cells were treated in triplicate with the parent compounds 2d and 2e (40 μM final concentration) or DMSO vehicle for 1 h at 37 °C in serum free media followed by a 1 h treatment with the probes 2j, 2k and 2l (10 μM final concentration) or DMSO vehicle.
(§5) Media was removed and cells were washed with PBS. […] Protein concentration of each lysate was determined using a BCA assay (Thermo Fisher Scientific, 23227). […]

CAII [1] = biological target: T1, CAII (Homo sapiens, UniProt P00918); test: Chemoproteomic target engagement of CAII in cells; type: cell-based; conditions: HEK293T cells, 10 μM probe, 1 h, vs DMSO
Description: as §1, §2, §3
as §4, with “The beads were washed once with PBS and twice with 20% EtOH. 20% EtOH (5 mL) was added, and the beads were stored at 4 °C.” left out
as §5

CAII [2] = biological target: T1, CAII; test: Single shot screen of chemoproteomic probes, intact protein LC-MS; type: binding; set-up: purchased Sigma Aldrich C6624-500UG; host or cells: E. coli; conditions: 1 μM CAII, 50 μM SF, 4 °C, 24 h
Excerpt: Hits from the CAII screen were progressed to chemoproteomic profiling to determine cellular target engagement and to measure their off-target profiles. SFs 2d and 2e were functionalized with an alkyne handle at the linking amide group to give probes 2j and 2k. A structurally similar negative control was also designed by substitution of the sulfonamide for a methoxy group, 2l (Figure 4a). […] The proteins engaged by these three probes were subsequently studied in HEK293T cells. […]
6.1. Single shot screen of chemoproteomic probes against CAII
The (synthesized and purified) active probes 2j, and 2k, as well as negative control 2l, were plated into a Greiner 384 white low volume plate from a 10 mM source in DMSO. Purified CAII diluted from original stock into a buffer made up of HEPES (pH 7.5, 25 mM) and NaCl (50 mM) in distilled MS-grade water (15 µL per well) was subsequently added across the plate. Final concentrations: 1 µM protein; 50 µM SF. The plate was sealed, centrifuged (1 min, 1000 rpm), incubated at 4 °C for 24 h, and subsequently analyzed by intact protein LC-MS. Modification yields were measured as 78% for 2j and 95% for 2k.
6.2. Chemoproteomics workflow […]
Chemoproteomics workflow: […]
Samples were incubated with acetylated NeutrAvidin agarose slurry (100 µL) (pre-washed three times with 0.2% SDS in HEPES (50 mM, pH 8.0)) on a combinatorial microlute plate (Porvair, 240002) for 2 h. The plate was centrifuged (1 min, 700 g) to remove supernatants.
The beads were washed three times with lysis buffer and 0.2% SDS in HEPES (50 mM, pH 8.0). The proteins were digested on-bead overnight at 37 °C with LysC (60 μL, 0.004 μg/μL) in HEPES (50 mM, pH 8.0). The supernatants were collected (1 min, 700 g) on a fresh plate and trypsin (30 μL, 0.006 μg/μL) in HEPES (50 mM, pH 8.0) was added to each sample. The samples were incubated for 4 h at 37 °C and acidified with 20% formic acid (10 μL).
The peptide samples were cleaned-up using C18 96-well plate (BioPureSPE Macro 96-Well, 100 mg PROTO C18, The Nest Group). The wells were conditioned with acetonitrile (300 μL) (centrifuged for 1 min at 50 g) and equilibrated twice with 0.1% TFA (300 μL) (centrifuged for 1 min at 150 g). 0.1% TFA (100 μL) was added to digest samples, and these were subsequently loaded on the plate (centrifuged for 1 min at 150 g). The samples were washed twice with 0.1% TFA (200 μL) (centrifuged for 1 min at 150 g). The plate was centrifuged once more at 200 g for 1 min. The peptides were eluted in two steps with 0.1% TFA (150 μL) in 50% acetonitrile

BCL6 = tested on: BCL6; set-up: method as in PMID 34274316; conditions: cited from earlier work
BCL6 BTB/POZ domain = BCL6 BTB/POZ domain (Homo sapiens, UniProt P41182, C67R/C84N/C8Q); test: Conventional differential scanning fluorimetry (DSF); type: binding; set-up: hBCL6-Flag 3Cmut (5-129) produced in house; FLAG (C); made in house
Description: We subsequently analyzed protein-fragment interactions using differential scanning fluorimetry (DSF) to explore the impact of these binding events on protein stability.[45] […] […]; this illustrates the impact of covalent modification on protein–ligand binding. […]
8.2. Conventional differential scanning fluorimetry (DSF)
BCL6-SF covalent complex preparation:
SFs 2f–i, 2p, 2q, 2s, and 2t in DMSO-d 6 (200 mM stock) or pure DMSO-d 6 were added to crystallizable BCL6 BTB/POZ domain (10 µM) in 20 mM Tris pH 8.5 and 200 mM NaCl. The reactions were incubated at 20 °C for 6 h (meta-substituted benzamide fragments) or 24 h (azetidinyl/piperidinyl fragments). Final concentrations: 10 µM protein, 500 µM SF, DMSO 0.25% v/v in 200 µL. Unreacted compound and DMSO-d 6 were removed by buffer-exchanging protein solutions into 20 mM Tris pH 8.5, 200 mM NaCl and 5% v/v glycerol inside Vivaspin 500 PES Centrifugal Concentration units. The protein was concentrated to 0.6–1.3 mg/mL within the units, according to UV-vis absorption spectrophotometry via a Nanodrop ND-1000 instrument. Protein was flash frozen using a dry ice/ethanol bath prior to […]
Differential scanning fluorimetry assay:
GSK137 (40 mM stock) or pure DMSO-d 6 were added to crystallizable BCL6 BTB/POZ domain (11 µM) in 20 mM Tris pH 8.5, 200 mM NaCl and 5% v/v glycerol to give solutions containing: 11 µM protein, DMSO 0.63% v/v and 222 µM GSK137 (where applicable).
Concentrated protein-SF complexes were also thawed and diluted to 11 µM in 20 mM Tris pH 8.5, […] and 5% v/v glycerol.
SYPRO Orange dye (Invitrogen S6650) in extra dilution buffer (50×, eq. 1% v/v DMSO) was added to give assay-ready solutions with final concentrations: 10 µM protein, SYPRO 5×, DMSO 0.1% v/v in volume 80 µL for the protein-SF covalent complexes or 10 µM protein, SYPRO 5×, DMSO 0.6% v/v in volume 100 µL with and without 200 µM GSK137.
Each solution was aliquoted (3 × 20 µL) into wells of an opaque 384-well PCR microplate (Axygen PCR-384-LC480-W) and coated with silicone oil DC 200 (5 µL; Fluka Chemicals 85413). The microplate was centrifuged (1 min, 200 g) prior to insertion into a Fluodia T70 spectrophotometer (Photal Instruments). The fluorescence intensity was detected (emission wavelength: […]) as the plate instrument interior was heated from 27–75 °C using a temperature stepping mode (waiting time before measurement: 60 s; fluorescence measurement interval: 45 s). The approximate temperature gradient was 0.5 °C min-1.
The fluorescence intensity data from the individual replicates of each sample type were normalized and identically truncated within GraphPad Prism 5.0.4.11 These values were subsequently fitted to equation (4) corresponding to a Boltzmann sigmoid in order to obtain the melting temperature (“V50”; T m) of the protein:
Y=BOTTOM+((TOP+BOTTOM)/(1+exp((V50–X)/SLOPE))) (4)
The three obtained T m values were averaged to give a final T m value in each case. The normalized fluorescence data for the three replicates of each sample were averaged to yield a single dataset for each case, which were then plotted in GraphPad Prism 5.0.4 to give the plots shown in the manuscript.11
Table S9. Thermal melting temperatures of unmodified and covalently modified BCL6 BTB/POZ domain as determined by differential scanning fluorimetry measurements.
The arithmetic mean and standard deviation from three replicates are shown.
Hit Chemotype Protein Species Tm / °C ΔT m / °C […]
meta-Substituted Benzamide BCL6 + 2g 70.4 ± 0.3 +11.7
Azetidinyl Fragments BCL6 + 2h 55.5 ± 0.1 −3.2 […]
8.3. Protocol for kinetic analyzes (BCL6)
The (resynthesized and purified) SF hits (2f–i) were plated into seven Greiner 384 white low volume plate from a 10 mM source in DMSO. Differing volumes were added such that the final concentrations for each compound would be: 100, 50, 20, 10, or 5 µM after adding 15 µL of protein stock solution per well. […]

Structure (SMILES)	number of proteins enriched by comparison to DMSO control (HEK293T cells)	enrichment of CAII (CAII [1])	covalent modification of purified CAII (CAII [2])	modification yield (CAII [2])	biochemical pIC50 (BCL6)	Tm (BCL6 BTB/POZ domain; 10 μM protein, covalent complex (500 μM SF, 6 or 24 h) or 200 μM GSK137, mean ± SD, three replicates)	ΔTm (BCL6 BTB/POZ domain; relative to unmodified BCL6)
C#CCN(CCc1ccc(S(N)(=O)=O)cc1)C(=O)Cc1ccc(S(=O)(=O)F)cc1 [2k]	501	some enrichment	covalently modified CAII	95%	–	–	–
C#CCN(Cc1cccc(OC)c1)C(=O)Cc1ccc(S(=O)(=O)F)cc1 [2l]	447	–	Negligible modification; also recorded: did not	–	–	–	–
Cc1ncccc1[C@H]1C[C@@H](c2cccc3nc(N)ccc23)Nc2c(F)cnn21 [GSK137, reference compound]	–	–	–	–	8	> 72 °C	> 12.3 °C and ~12 °C
C#CCN(Cc1cccc(S(N)(=O)=O)c1)C(=O)Cc1ccc(S(=O)(=O)F)cc1 [2j]	523	some enrichment	covalently modified CAII	78%	–	–	–
